Structures can show the parent of a compound that is named as a salt. A value given as a limit tells only on which side of the number the result lay.

Among the data in US8278304B2, “Substituted 4-hydroxypyrimidine-5-carboxamides” (Merck Sharp & Dohme Corp., priority 2008, dated 2012) are IC50 values, retold here.

This assay addresses T1, PHD2 (Homo sapiens, UniProt Q9GZT9).
T1 construct: FLAG-tagged full length PHD2 expressed in and purified from baculovirus-infected Sf9 cells; FLAG; made in house; host or cells: baculovirus-infected Sf9 cells
The assay can be described thus: PHD2 / HIF-1α peptide hydroxylation assay, time resolved fluorescence (VHL complex detection). In kind it is biochemical. The settings on record: FLAG-tagged full length PHD2; 0.2 μM 2-oxoglutarate, 0.5 μM HIF-1α peptide; read-out: PHD2 Activity (PHD2 binding activity expressed as IC50 (nM)). The essentials: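 Sf9-expressed FLAG-tagged full-length PHD2 (0.15 μg/ml) preincubated with compound 30 min at room temperature in Tris pH 7.4 buffer with 10 μM ferrous sulfate, 1 mM ascorbate and catalase. Reaction started with 0.2 μM 2-oxoglutarate and 0.5 μM biotinylated HIF-1α peptide (final); hydroxylation detected by time-resolved fluorescence via VHL complex binding.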

T1 sequence (Q9GZT9 whole entry): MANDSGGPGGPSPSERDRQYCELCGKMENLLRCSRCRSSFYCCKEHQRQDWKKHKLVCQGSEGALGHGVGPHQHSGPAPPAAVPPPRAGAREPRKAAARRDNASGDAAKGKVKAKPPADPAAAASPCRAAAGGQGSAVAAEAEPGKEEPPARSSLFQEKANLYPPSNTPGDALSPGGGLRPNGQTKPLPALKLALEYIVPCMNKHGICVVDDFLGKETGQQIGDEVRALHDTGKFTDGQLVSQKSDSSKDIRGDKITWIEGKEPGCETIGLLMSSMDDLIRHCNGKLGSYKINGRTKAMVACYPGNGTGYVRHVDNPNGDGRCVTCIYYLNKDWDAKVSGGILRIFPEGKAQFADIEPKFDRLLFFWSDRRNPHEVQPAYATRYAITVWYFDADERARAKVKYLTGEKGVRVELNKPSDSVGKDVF

On to `O=C(O)CNC(=O)c1cnc(-n2cccn2)nc1O` [Example 104, N-{[4-hydroxy-2-(1H-pyrazol-1-yl)pyrimidin-5-yl]carbonyl}glycine], for which the IC50 lay within 1000 to 10000 nM. To `Cc1nc(-c2ncc(C(=O)NCc3ccc(OC(F)(F)F)cc3)c(O)n2)cs1` [Example 31, 4-Hydroxy-2-(2-methyl-1,3-thiazol-4-yl)-N-[4-(trifluoromethoxy)benzyl]pyrimidine-5-carboxamide] belongs 100 to 1000 nM; to `O=C(NCc1ccc(-c2ccccc2Cl)cc1)c1cnc(-n2cccn2)nc1O` [Example 62, N-[(2′-chlorobiphenyl-4-yl)methyl]-4-hydroxy-2-(1H-pyrazol-1-yl)pyrimidine-5-carboxamide], at most 10 nM; to `Cc1nc(-c2ncc(C(=O)NC(C)(C)C)c(O)n2)cs1` [Example 40, N-(tert-butyl)-4-hydroxy-2-(2-methyl-1,3-thiazol-4-yl)pyrimidine-5-carboxamide], 100 to 1000 nM.

Take `O=C(NCc1ccc(-c2ccccc2)cc1)c1cnc(-c2cccnn2)nc1O` [Example 28, N-(biphenyl-4-ylmethyl)-4-hydroxy-2-pyridazin-3-ylpyrimidine-5-carboxamide]: the IC50 is at most 10 nM. Consider `COc1ccc(C(NC(=O)c2cnc(-n3cccn3)nc2O)c2ccc(SC)cc2)cc1` (stereo not drawn) [Example 168, 4-hydroxy-N-{(4-methoxyphenyl)[4-(methylsulfanyl)phenyl]methyl}-2-(1H-pyrazol-1-yl)pyrimidine-5-carboxamide], for which the IC50 was at most 10 nM. For `COc1ccc(C(NC(=O)c2cnc(-c3cccnn3)nc2O)c2ccc(C)nc2)cc1` (single isomer, unassigned) [Example 146, 4-hydroxy-N-[(4-methoxyphenyl)(6-methylpyridin-3-yl)methyl]-2-(pyridazin-3-yl)pyrimidine-5-carboxamide], the IC50 was at most 10 nM. To `C[C@H](NC(=O)c1cnc(-c2cccnn2)nc1O)c1ccc(-c2cccnc2)cc1` [Example 187, 4-hydroxy-2-pyridazin-3-yl-N-[(1S)-1-(4-pyridin-3-ylphenyl)ethyl]pyrimidine-5-carboxamide trifluoroacetate (salt)] belongs at most 10 nM; to `COc1ccc(C(NC(=O)c2cnc(-c3cccnn3)nc2O)c2ccc(C#N)cc2)cc1` (single isomer, unassigned) [Example 150, N-[(4-cyanophenyl)(4-methoxyphenyl)methyl]-4-hydroxy-2-(pyridazin-3-yl)pyrimidine-5-carboxamide], at most 10 nM; to `C[C@@H](NC(=O)c1cnc(-n2cccn2)nc1O)C1CCCCC1` [Example 84, N-[(1R)-1-cyclohexylethyl]-4-hydroxy-2-(1H-pyrazol-1-yl)pyrimidine-5-carboxamide], 10 to 100 nM. `O=C(c1cnc(-n2cccn2)nc1O)N1CCCCC1` [Example 81, 5-(Piperidin-1-ylcarbonyl)-2-(1H-pyrazol-1-yl)pyrimidin-4-ol]: the half-inhibitory concentration (IC50) fell in the range of 1000 to 10000 nM. As for `COc1ccc(C(NC(=O)c2cnc(-c3cccnn3)nc2O)c2ccc(OC)nc2)cn1` [Example 192, N-[bis(6-methoxypyridin-3-yl)methyl]-4-hydroxy-2-(pyridazin-3-yl)pyrimidine-5-carboxamide], the half-maximal inhibitory concentration (IC50) was at most 10 nM. As to `CC(NC(=O)c1cnc(-n2cccn2)nc1O)c1ccccn1` (stereo not drawn) [Example 118, 4-hydroxy-2-(1H-pyrazol-1-yl)-N-[1-(pyridin-2-yl)ethyl]pyrimidine-5-carboxamide], the half-maximal inhibitory concentration (IC50) lay in the range of 10 to 100 nM. `Cc1cccc(-c2ncc(C(=O)NCc3ccc(Cl)cc3Cl)c(O)n2)n1` [Example 17, N-(2,4-dichlorobenzyl)-4-hydroxy-2-(6-methylpyridin-2-yl)pyrimidine-5-carboxamide]: the IC50 was in the range of 100 to 1000 nM. As for `O=C(NCc1ccc(C(F)(F)F)cc1)c1cnc(-c2ncccn2)nc1O` [Example 23, 4-Hydroxy-N-[4-(trifluoromethyl)benzyl]-2,2′-bipyrimidine-5-carboxamide], the IC50 lay in the range of 100 to 1000 nM.

Broadly, the IC50 is the concentration at which inhibition is half-maximal.
